Where a SMILES comes first, the peptide text is derived from it. The star is where a group is joined. Cbz = O=C(OCc1ccccc1)*
Assays:
Src [1] = assay: Src turnover, cycloheximide / MG132; format: cell-based, human; conditions: HeLa, n = 3
Experimental: (§1) To assess this, HeLa cells were transfected with NMT1/2 siRNA or left untreated and analysed after addition of cycloheximide (8 h) to block protein synthesis or MG132 (4 h) to inhibit proteasomal degradation.
(§2) 124 Supplementary Fig. 5. NMT1/2 knockdown leads to an increased turnover of SFKs
(§3) 125 and overexpression of DCAF10 reduces SFK levels after NMT1/2 knockdown. […]
(§4) 130 overexpression. Untreated: purple; with NMT1/2 RNAi: blue. Individual data points are
(§5) 131 indicated (n = 2 or 3 independent biological replicates). MG132 = proteasome inhibitor;
(§6) 132 CHX = cycloheximide translational inhibitor. d) HeLa cells were treated for 72 h with and
(§7) 133 without NMT1/2 siRNA and treated with cycloheximide or MG132 for the indicated
(§8) 134 periods of time. Representative WBs are shown. Filled circles indicate treatment; empty
(§9) 135 circles indicate no treatment. e-h) Fold-change analysis of protein expression levels under
(§10) 136 the indicated conditions. Left: fold change after 8 h cycloheximide treatment of (e) Lyn,
(§11) 137 (f) Fyn, (g) Src and (h) THOC7. […]
(§12) 413 knockdown, the transfection reagent Lipofectamine RNAiMAX (Invitrogen, Thermo
(§13) 414 Fisher Scientific, Waltham, MA, USA) was used at a final dilution of 1:333 (3 μL/mL of
(§14) 415 medium). Pools of siRNAs, including siNMT1, siNMT2, siDCAF10, siZYG11B, and
(§15) 416 siZER1, or combinations of different siRNAs, were reverse transfected at a concentration […]

THOC7 = THOC7 turnover, cycloheximide / MG132; format: cell-based, human; conditions: NMT1/2 KD, HeLa, n = 3, 'unaffected'
Experimental: as §1, §2, §3, §4, §5, §6, §7, §8, §9, §10, §11, §12, §13, §14, §15

Lyn [2] = assay: Lyn turnover, cycloheximide / MG132; format: cell-based, human; conditions: HeLa, n = 3
Experimental: as §1, §2, §3, §4, §5, §6, §7, §8, §9, §10, §11, §12, §13, §14, §15

Fyn [3] = assay: Fyn turnover, cycloheximide / MG132; format: cell-based, human; conditions: HeLa, n = 3
Experimental: as §1, §2, §3, §4, §5, §6, §7, §8, §9, §10, §11
410 HeLa, DLD-1 and all thereof derived stable cell lines, and RPE-1 cells were grown in
412 serum (FBS). Cells were counted and diluted to 100,000 cells/mL. For siRNA
as §12, §13
415 medium). […]

ZYG11B = assay: Peptide pull-down with quantitative MS, HeLa lysate, ZYG11B; format: binding, human (HeLa); conditions: Nt-Ac vs Nt-free peptides
Experimental: Biotinylated 10-mer Nt-peptides (Nt-free, Nt-acetylated, and, where indicated, Nt-myristoylated; sequences in Supplementary Table 1) were synthesized with a C-terminal Lys3 spacer and biotin, immobilized on magnetic streptavidin beads, and incubated with HeLa or mouse liver lysates. After standardized washes, bound proteins were on-bead reduced/alkylated, digested with LysC/trypsin, desalted, and analysed by LC-MS in DIA mode (Orbitrap Exploris 480) as described previously. Variants included endogenous Nt-sequences, swap and mutant (Ala-Ala-Ala or Nt-amino acids) peptides, and pairwise comparisons of conditions of interest. Full buffer compositions, bead loading, wash schemes, and MS parameters are provided in the Supplementary Methods.
203 Supplementary Methods
205 Peptide sequences are listed in Supplementary Table 1. Peptide pull-downs were
Briefly, magnetic streptavidin beads (DynabeadsTM
Beads were then washed three times with PBS. After
210 washing, 1 mg of HeLa lysates or 2 mg of liver lysates was taken, and lysis buffer (75
Lysates were incubated with streptavidin
HeLa pull-downs were washed twice with lysis buffer and twice
Liver pulldowns were washed twice with cold low salt buffer (50 mM
220 individually ventilated cages under a 12-h light/dark cycle and were provided with sterile
All procedures were performed
No animal procedures were performed specifically for this […]

Fyn [4] = assay: In vitro ubiquitination of immunoprecipitated Fyn; format: biochemical, human; conditions: 250 nM E3 complex, n = 3
Source text: (§16) Having established cellular regulation by DCAF10 under reduced N-myristoylation, we aimed to test whether CUL4A-DDB1-DCAF10 directly ubiquitinates SFKs. […] As we expect NMT1/2 depletion to cause a destabilization of SFKs, their equal or even greater ubiquitination in IPs from untreated cells relative to NMT1/2-depleted cells was unanticipated. We speculate that (i) Nt-acetylated SFKs may degrade rapidly, preventing their accumulation upon NMT1/2 depletion; (ii) an acetylated fraction of SFKs may exist under physiological conditions; (iii) DCAF10 might recognize additional surfaces.
(§17) Reactions contained E1, UBCH5B (E2), ubiquitin, Mg-ATP in ligation buffer and were incubated with bead-bound substrates, followed by washing and immunoblot detection of ubiquitinated species (anti-ubiquitin), with loading controls (anti-Lyn, -Fyn, -Src or -GFP) (n = 3 independent enzymatic assays). Complete reagent lists, complex preparation, substrate IP conditions, wash buffers, and gel/blot parameters are provided in the Supplementary Methods and Tables.
(§18) 357 (v/v) glycerol, 2 mM TCEP, supplemented with Protease Inhibitor Cocktail), and lysed
(§19) 358 by sonication. Lysates were cleared by centrifugation at 28,000 rpm for 45 min at 4 °C […]
(§20) 382 EDTA, and loaded on a gradient gel (4–15%). Ubiquitination of substrates was assessed
(§21) 383 by WB using an anti-ubiquitin antibody. Equal substrate loading was evaluated by anti- […]

Src [5] = assay: In vitro ubiquitination of immunoprecipitated Src; format: biochemical, human; conditions: 250 nM E3 complex, n = 3
Source text: as §16, §17, §18, §19, §20, §21

Lyn [6] = assay: In vitro ubiquitination of immunoprecipitated Lyn; format: biochemical, human; conditions: 250 nM E3 complex, 1 h 30°C, Ub normalized to bait, n = 3
Source text: as §16, §17, §18, §19, §20, §21

[7] = IP from NMT1/2-depleted HeLa cells
[8] = cycloheximide 100 µg/mL 8 h, NMT1/2 KD relative to cycloheximide-treated control

## CC(C)C[C@@H](C=O)NC(=O)[C@H](CC(C)C)NC(=O)[C@H](CC(C)C)NC(=O)OCc1ccccc1 [MG132] (Cbz-Leu-Leu-Leu-aldehyde)
Src [1]; MG132 10 µM 4 h, NMT1/2 KD
  Src increase: 2 fold
THOC7; MG132 10 µM 4 h
  THOC7 increase: 1.1 fold
Lyn [2]; MG132 10 µM 4 h, NMT1/2 KD
  Lyn increase: 1.6 fold
Fyn [3]; MG132 10 µM 4 h, NMT1/2 KD
  Fyn increase: 1.6 fold

## GAPATRRCVEKK [Nt-free TMEM97, Nt-peptide of TMEM97, Nt-free]
ZYG11B
  ZYG11B binding (in words): ZYG11B binding only to the Nt-free peptide of TMEM97

## WT: catalytically active E3 ligase complex of full-length CUL4A, DDB1, DCAF10 and RBX1
Fyn [4]; [7]
  Fyn ubiquitination, ratio relative to RBX1^mut: 2.27 fold
Fyn [4]; IP from control HeLa cells
  Fyn ubiquitination, ratio relative to RBX1^mut: 2.73 fold
Src [5]; [7]
  Src ubiquitination, ratio relative to RBX1^mut: 2.03 fold
Src [5]; IP from control HeLa cells
  Src ubiquitination, ratio relative to RBX1^mut: 3.0 fold
Lyn [6]; [7]
  Lyn ubiquitination, ratio relative to RBX1^mut: 2.18 fold
Lyn [6]; IP from control HeLa cells
  Lyn ubiquitination, ratio relative to RBX1^mut: 2.58 fold

## C[C@@H]1C[C@@H]([C@H](O)CC2CC(=O)NC(=O)C2)C(=O)[C@@H](C)C1 [Cycloheximide]
Src [1]; [8]
  Src decrease: 1.3 fold
THOC7; cycloheximide 100 µg/mL 8 h
  THOC7 decrease: 1.1 fold
Lyn [2]; [8]
  Lyn decrease: 2 fold
Fyn [3]; [8]
  Fyn decrease: 1.5 fold

Reference: PMC12775124, “CUL4A-DDB1-DCAF10 is an N-recognin for N-terminally acetylated Src kinases” (Nature Communications, 2026)
